In patent publication US10040788B2, “1,3,4-thiadiazole compounds and their use in treating cancer” (AstraZeneca AB, priority 2014, dated 2018):

Legend:
[1] = target: GLS1 (Homo sapiens (Human), UniProt O94925); experiment: GLS Enzyme Potency Assay (Glutamate Oxidase/AmplexRed coupled assay); format: biochemical; conditions: 6His tagged GLS protein (amino acids 63-669); geometric mean where repeated
Source text: The following assays were used to measure the effects of the compounds of the present invention: a) GLS Enzyme Potency Assay; b) GLS Cell Potency Assay; c) GLS Cell Proliferation Assay; and d) Mouse Xenograft Model. During the description of the assays, generally: • i. The following abbreviations have been used: CO2=Carbon dioxide; DMEM=Dulbecco's Modified Eagle Medium; DMSO=Dimethyl sulphoxide; EDTA=Ethylenediaminetetraacetic acid; EGTA=Ethylene glycol tetraacetic acid; FCS=Foetal calf serum; h=Hour(s); NBS=Non-binding surface; SDS=Sodium dodecyl sulphate; r.t.=room temperature; TRIS=Tris(Hydroxymethyl)aminomethane. • ii. IC50 values were calculated using a smart fitting model in Genedata. […] Assay a): GLS Enzyme Potency Assay
A Glutamate Oxidase/AmplexRed coupled assay was used to measure the ability of compounds to bind to and inhibit the activity of GLS1 in vitro. […] GLS1 was diluted to 2× working concentration and incubated at r.t. to allow the tetrameric/dimeric forms to reach steady state. Assay measurements were performed in buffer comprising 50 mM TRIS pH 7.8, 100 mM NaPO4, pH 7.8, 0.001% v/v Tween20. […] DMSO concentration was maintained at 2% by back filling with DMSO solution. […] 3 μL of 100 mM glutamine diluted in assay buffer was then added and the reaction incubated at r.t. for 60 minutes. […] An artefact version of the assay where the 6His tagged GLS protein and glutamine were replaced with assay buffer was also used to rule out non specific effects on the assay components.

[2] = target: cellular GLS activity (Homo sapiens (Human), UniProt O94925); experiment: GLS Cell Potency Assay (PC3 coupled assay measuring cellular glutamate depletion); format: cell-based; conditions: PC3 cells, 6 h incubation, cellular glutamate depletion; geometric mean where repeated; read-out: Assay b) GLS Cell Potency Assay IC50
Source text: (§1) The following assays were used to measure the effects of the compounds of the present invention: a) GLS Enzyme Potency Assay; b) GLS Cell Potency Assay; c) GLS Cell Proliferation Assay; and d) Mouse Xenograft Model. During the description of the assays, generally: • i. The following abbreviations have been used: CO2=Carbon dioxide; DMEM=Dulbecco's Modified Eagle Medium; DMSO=Dimethyl sulphoxide; EDTA=Ethylenediaminetetraacetic acid; EGTA=Ethylene glycol tetraacetic acid; FCS=Foetal calf serum; h=Hour(s); NBS=Non-binding surface; SDS=Sodium dodecyl sulphate; r.t.=room temperature; TRIS=Tris(Hydroxymethyl)aminomethane. • ii. […]
Compounds were assessed for their potential to inhibit cellular GLS activity by use of a PC3 coupled assay measuring cellular glutamate depletion. […] DMSO concentration was maintained at 0.3% by back filling with DMSO solution. PC3 cells were grown in phenol free DMEM, 10% dialyzed FCS, 2 mM glutamine and following dispersal by trypsinisation were plated at 5.6×10^3 cells per well in 40 μl of growth medium directly into the 384 well assay plates containing dispensed compound. After incubation for 6 h at 37° C., 5% CO2 growth media was aspirated and cells lysed in 15 μl of buffer containing 10 mM TRIS pH7.4, 100 mM NaCl, 1 mM EDTA, 1 mM EGTA, 1 mM NaF, 20 mM Na4P2O7, 2 mM Na3VO4, 1% Triton X-100, 10% glycerol, 0.1% SDS and 0.5% deoxycholate.

[3] = test system: NCI-H1703 cells; experiment: GLS Cell Proliferation Assay (NCI-H1703); format: cell-based, human; conditions: Homo sapiens, 120 h; NCI-H1703 cells, 5 days incubation; geometric mean where repeated; read-out: Assay c) GLS Cell Proliferation Assay
Source text: as §1
The ability of compounds to inhibit cell growth was measured using a 384 well plate NCI-H1703 cell proliferation assay. NCI-H1703 cells were grown in phenol red free RPMI1640, 10% FCS and 2 mM glutamine and seeded at a density of 750 cells per well in 40 μl of growth medium into clear-bottom 384 well assay plates (Corning product code 3712) and incubated for 24 h at 37° C., 5% CO2. […] DMSO concentration was maintained at 0.3% by back filling with DMSO solution. Plates were incubated for 5 days at 37° C., 5% CO2, Sytox Green and Saponin added to final concentration of 2 μM and 0.25% respectively and incubated for 6 h prior to analysis. Plates were read on an Acumen eX3 (TTP Labtech) using 488 nm excitation and FITC filter set (500-530 nm) for emission. IC50 values were calculated by curve fitting to max inhibition of day zero growth using GeneData software analysis.

cellular GLS activity, sequence (O94925 55-669): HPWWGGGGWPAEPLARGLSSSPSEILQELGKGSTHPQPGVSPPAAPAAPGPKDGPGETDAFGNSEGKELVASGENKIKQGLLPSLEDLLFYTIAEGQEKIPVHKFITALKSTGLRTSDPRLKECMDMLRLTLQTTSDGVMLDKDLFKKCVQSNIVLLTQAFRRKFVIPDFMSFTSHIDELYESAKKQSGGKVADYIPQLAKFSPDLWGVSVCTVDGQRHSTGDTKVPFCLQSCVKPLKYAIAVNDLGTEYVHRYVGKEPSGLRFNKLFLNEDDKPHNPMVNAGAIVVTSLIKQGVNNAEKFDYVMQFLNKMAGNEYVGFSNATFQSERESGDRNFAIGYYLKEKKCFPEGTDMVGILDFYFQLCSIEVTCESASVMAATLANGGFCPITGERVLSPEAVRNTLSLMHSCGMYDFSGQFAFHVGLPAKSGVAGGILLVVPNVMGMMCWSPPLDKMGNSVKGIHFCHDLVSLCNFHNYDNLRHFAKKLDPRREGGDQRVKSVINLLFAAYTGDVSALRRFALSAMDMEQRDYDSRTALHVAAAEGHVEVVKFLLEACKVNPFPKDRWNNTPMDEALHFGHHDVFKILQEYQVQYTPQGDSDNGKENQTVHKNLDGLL
GLS1, sequence (O94925 63-669): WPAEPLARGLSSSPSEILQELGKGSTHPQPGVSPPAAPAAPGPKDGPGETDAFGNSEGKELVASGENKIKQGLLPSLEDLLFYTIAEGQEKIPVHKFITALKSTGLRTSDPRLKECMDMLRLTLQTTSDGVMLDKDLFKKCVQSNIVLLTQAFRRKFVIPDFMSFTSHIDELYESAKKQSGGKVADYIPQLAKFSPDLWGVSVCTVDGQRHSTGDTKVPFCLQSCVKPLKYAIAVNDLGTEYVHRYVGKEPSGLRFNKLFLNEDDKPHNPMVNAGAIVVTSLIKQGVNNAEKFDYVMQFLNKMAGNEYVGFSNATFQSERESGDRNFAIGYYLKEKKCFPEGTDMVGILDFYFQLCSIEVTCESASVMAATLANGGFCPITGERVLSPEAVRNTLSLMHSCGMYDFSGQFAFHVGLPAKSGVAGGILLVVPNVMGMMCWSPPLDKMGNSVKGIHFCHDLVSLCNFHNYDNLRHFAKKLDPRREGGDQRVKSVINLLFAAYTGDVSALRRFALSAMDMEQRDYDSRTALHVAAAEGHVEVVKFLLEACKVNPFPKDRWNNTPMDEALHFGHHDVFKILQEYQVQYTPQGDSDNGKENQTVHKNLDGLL

Row | Structure (SMILES) | IC50 [1] [nM] | IC50 [2] [nM] | IC50 [3] [nM]
1 | CCO[C@H](C(=O)Nc1nnc(N[C@@H]2CCN(c3nccnn3)C2)s1)c1ccc(F)cc1 [35(a), (2S)-2-ethoxy-2-(4-fluorophenyl)-N-[5-[[(3R)-1-(1,2,4-triazin-3-yl)pyrrolidin-3-yl]amino]-1,3,4-thiadiazol-2-yl]acetamide] | 1950 | 337 | 7130
2 | CCO[C@@H](C(=O)Nc1nnc(N[C@@H]2CCN(c3nccnn3)C2)s1)c1ccc(F)cc1 [35(b), (2R)-2-ethoxy-2-(4-fluorophenyl)-N-[5-[[(3R)-1-(1,2,4-triazin-3-yl)pyrrolidin-3-yl]amino]-1,3,4-thiadiazol-2-yl]acetamide] | 155 | 18.7 | 404
3 | CO[C@H](C(=O)Nc1nnc(N[C@@H]2CCN(c3cncnn3)C2)s1)c1ccccc1 [Example 3, (2S)-2-Methoxy-2-phenyl-N-[5-[[(3R)-1-(1,2,4-triazin-6-yl)pyrrolidin-3-yl]amino]-1,3,4-thiadiazol-2-yl]acetamide] | 29 | 0.39 | 3.24
4 | COc1cccc([C@H](OC)C(=O)Nc2nnc(N[C@@H]3CCN(c4nccnn4)C3)s2)c1 [Example 4(a), (2S)-2-Methoxy-2-(3-methoxyphenyl)-N-[5-[[(3R)-1-(1,2,4-triazin-3-yl)pyrrolidin-3-yl]amino]-1,3,4-thiadiazol-2-yl]acetamide] | 35.5 | 1.51 | 5.01
5 | COc1cccc([C@@H](OC)C(=O)Nc2nnc(N[C@@H]3CCN(c4nccnn4)C3)s2)c1 [Example 4(b), (2R)-2-Methoxy-2-(3-methoxyphenyl)-N-[5-[[(3R)-1-(1,2,4-triazin-3-yl)pyrrolidin-3-yl]amino]-1,3,4-thiadiazol-2-yl]acetamide] | 908 | 76 | 262
6 | COc1cccc([C@H](OC)C(=O)Nc2nnc(N[C@@H]3CCN(c4cccnn4)C3)s2)c1 [Example 5(a), (2S)-2-Methoxy-2-(3-methoxyphenyl)-N-[5-[[(3R)-1-pyridazin-3-ylpyrrolidin-3-yl]amino]-1,3,4-thiadiazol-2-yl]acetamide] | 21.5 | 0.19 | 3.38
7 | COc1cccc([C@@H](OC)C(=O)Nc2nnc(N[C@@H]3CCN(c4cccnn4)C3)s2)c1 [Example 5(b), (2R)-2-Methoxy-2-(3-methoxyphenyl)-N-[5-[[(3R)-1-pyridazin-3-ylpyrrolidin-3-yl]amino]-1,3,4-thiadiazol-2-yl]acetamide] | 87.9 | 5.3 | 53.5
8 | CO[C@H](C(=O)Nc1nnc(N[C@@H]2CCN(c3nccnn3)C2)s1)c1cccc(OC(F)F)c1 [Example 6(a), (2S)-2-[3-(Difluoromethoxy)phenyl]-2-methoxy-N-[5-[[(3R)-1-(1,2,4-triazin-3-yl)pyrrolidin-3-yl]amino]-1,3,4-thiadiazol-2-yl]acetamide] | 85.1 | 2.57 | 16.6
9 | CO[C@@H](C(=O)Nc1nnc(N[C@@H]2CCN(c3nccnn3)C2)s1)c1cccc(OC(F)F)c1 [Example 6(b), (2R)-2-[3-(Difluoromethoxy)phenyl]-2-methoxy-N-[5-[[(3R)-1-(1,2,4-triazin-3-yl)pyrrolidin-3-yl]amino]-1,3,4-thiadiazol-2-yl]acetamide] | 519 | 37 | 81.7
10 | CO[C@H](C(=O)Nc1nnc(N[C@@H]2CCN(c3cccnn3)C2)s1)c1cccc(OC(F)(F)F)c1 [Example 9(a), (2S)-2-Methoxy-N-[5-[[(3R)-1-pyridazin-3-ylpyrrolidin-3-yl]amino]-1,3,4-thiadiazol-2-yl]-2-[3-(trifluoromethoxy)phenyl]acetamide] | 18.6 | 0.14 | 0.725
11 | CO[C@@H](C(=O)Nc1nnc(N[C@@H]2CCN(c3cccnn3)C2)s1)c1cccc(OC(F)(F)F)c1 [Example 9(b), (2R)-2-Methoxy-N-[5-[[(3R)-1-pyridazin-3-ylpyrrolidin-3-yl]amino]-1,3,4-thiadiazol-2-yl]-2-[3-(trifluoromethoxy)phenyl]acetamide] | 32.9 | 2.3 | 4.4

Results, then the molecule that gave them:

Row | IC50 [1] [nM] | IC50 [2] [nM] | IC50 [3] [nM] | Structure (SMILES)
12 | 110 | 13 | 234 | CCO[C@@H](C(=O)Nc1nnc(N[C@@H]2CCN(c3cccnn3)C2)s1)c1ccccc1 [Example 10(b), (2R)-2-Ethoxy-2-phenyl-N-[5-[[(3R)-1-pyridazin-3-ylpyrrolidin-3-yl]amino]-1,3,4-thiadiazol-2-yl]acetamide]
13 | 31 | 0.401 | 10.8 | COc1ccc([C@H](OC)C(=O)Nc2nnc(N[C@@H]3CCN(c4cccnn4)C3)s2)cc1 [Example 11, (2S)-2-Methoxy-2-(4-methoxyphenyl)-N-[5-[[(3R)-1-pyridazin-3-ylpyrrolidin-3-yl]amino]-1,3,4-thiadiazol-2-yl]acetamide]
14 | 27 | 0.96 | 18.3 | CCO[C@H](C(=O)Nc1nnc(N[C@@H]2CCN(c3cccnn3)C2)s1)c1ccc(F)cc1 [Example 13(a), (2S)-2-Ethoxy-2-(4-fluorophenyl)-N-[5-[[(3R)-1-pyridazin-3-ylpyrrolidin-3-yl]amino]-1,3,4-thiadiazol-2-yl]acetamide]
15 | 170 | 14 | 560 | CCO[C@@H](C(=O)Nc1nnc(N[C@@H]2CCN(c3cccnn3)C2)s1)c1ccc(F)cc1 [Example 13(b), (2R)-2-Ethoxy-2-(4-fluorophenyl)-N-[5-[[(3R)-1-pyridazin-3-ylpyrrolidin-3-yl]amino]-1,3,4-thiadiazol-2-yl]acetamide]
16 | 25.5 | 0.78 | 15.1 | COc1cc([C@H](OC)C(=O)Nc2nnc(N[C@@H]3CCN(c4cccnn4)C3)s2)ccc1F [Example 14(a), (2S)-2-(4-Fluoro-3-methoxy-phenyl)-2-methoxy-N-[5-[[(3R)-1-pyridazin-3-ylpyrrolidin-3-yl]amino]-1,3,4-thiadiazol-2-yl]acetamide]
17 | 168 | 65 | 518 | COc1cc([C@@H](OC)C(=O)Nc2nnc(N[C@@H]3CCN(c4cccnn4)C3)s2)ccc1F [Example 14(b), (2R)-2-(4-Fluoro-3-methoxy-phenyl)-2-methoxy-N-[5-[[(3R)-1-pyridazin-3-ylpyrrolidin-3-yl]amino]-1,3,4-thiadiazol-2-yl]acetamide]
18 | 74.7 | 4.58 | 118 | COc1ccc([C@H](OC)C(=O)Nc2nnc(N[C@@H]3CCN(c4nccnn4)C3)s2)cc1 [Example 24, (2S)-2-methoxy-2-(4-methoxyphenyl)-N-[5-[[(3R)-1-(1,2,4-triazin-3-yl)pyrrolidin-3-yl]amino]-1,3,4-thiadiazol-2-yl]acetamide]
